Results taken from US7846924B2, “Cyanopyrroles” (Wyeth LLC, priority 1999, dated 2010).

Compound	melting point
CCOc1cc(CCNC(=O)Cn2c(C#N)ccc2-c2ccc3c(c2)C(C)(C)OC(=O)N3)ccc1OC [Example 10, 2-[2-cyano-5-(4,4-dimethyl-2-oxo-1,4-dihydro-2H-3,1-benzoxazin-6-yl)-1H-pyrrol-1-yl]-N-[2-(3-ethoxy-4-methoxyphenyl)ethyl]acetamide]	160 to 162 °C
CCCCCn1c(C#N)ccc1-c1ccc2c(c1)C(C)(C)OC(=O)N2 [Example 11, 5-(4,4-Dimethyl-2-oxo-1,4-dihydro-2H-3,1-benzoxazine-6-yl)-1-pentyl-1H-pyrrole-2-carbonitrile]	128 to 131 °C
CC1(C)OC(=O)Nc2ccc(-c3ccc(C#N)[nH]3)cc21 [Example 1, 5-(4,4-Dimethyl-2-oxo-1,4-dihydro-2H-benzo[d][1,3]oxazin-6-yl)-1H-pyrrole-2-carbonitrile]	241 to 242 °C
CC1(C)C(=O)Nc2ccc(C3(C#N)C=CC=N3)cc21 (stereo not drawn) [Example 3, 2-(3,3-Dimethyl-2-oxo-2,3-dihydro-1H-indol-5-yl)-2-cyanopyrrole]	255.9 to 257.9 °C
CN1C(=O)OC(C)(C)c2cc(-c3ccc(C#N)[nH]3)ccc21 [Example 12, 5-(1,4,4-trimethyl-2-oxo-1,4-dihydro-2H-3,1-benzoxazin-6-yl)-1H-pyrrole-2-carbonitril]	256 to 257 °C (dec.)

Further lines, results first:

melting point	Compound
188 to 190 °C	CC(C)(C)OC(=O)Cn1c(C#N)ccc1-c1ccc2c(c1)C(C)(C)OC(=O)N2 [Example 8, tert-butyl[2-cyano-5-(4,4-dimethyl-2-oxo-1,4-dihydro-2H-3,1-benzoxazin-6-yl)-1H-pyrrol-1-yl]acetate]
222 to 224 °C	C#CCn1c(C#N)ccc1-c1ccc2c(c1)C(C)(C)OC(=O)N2 [Example 7, 5-(4,4-dimethyl-2-oxo-1,4-Dihydro-2H-3,1-benzoxazin-6-yl)-1-prop-2-ynyl-1H-pyrrole-2-carbonitrile]
200 to 202 °C	CCn1c(C#N)ccc1-c1ccc2c(c1)C(C)(C)OC(=O)N2 [Example 6, 5-(4,4-Dimethyl-2-oxo-1,4-dihydro-2H-3,1-benzoxazin-6-yl)-1-ethyl-1H-pyrrole-2-carbonitrile]
207 to 209 °C	CC1(C)OC(=O)Nc2ccc(-c3ccc(C#N)n3CC(=O)O)cc21 [Example 9, [2-Cyano-5-(4,4-dimethyl-2-oxo-1,4-dihydro-2H-3,1-benzoxazin-6-yl)-1H-pyrrol-1yl]acetic acid]
